# Reference: patent US12472228B2, “Use of exosome-based delivery of NF-κB inhibitors” (Ilias Biologics Inc., priority 2020, dated 2025)
# Key:
# THP-1 cells = assay: LPS-stimulated THP-1 cells, cytokine secretion (ELISA); type: cell-based, human; settings: JSH-23 50 μM, Exo-srIκB 5×10^6 particles
# Description: (A) HEK293-NF-κB-luciferase cells (2×10^4 cells) were cultured either with Exo-Naïve or with Exo-srIκB 2×10^5 particles. After 24 h, the cells were treated with 0.5 ng/ml TNF-α for an additional 18 h. Luciferase activities were measured and normalized. (B) Exo-srIκB dose-dependently repressed NF-κB activation in NF-κB-luciferase cells. (C) THP-1 cells (5×10^5 cells) were stimulated with […] LPS and then treated with Exo-srIκBs 5×10^6 particles. The supernatants were collected and assayed for the production of TNF-α and monocyte chemoattractant protein (MCP)-1. […] Cells were harvested into a single-cell suspension and assessed through flow cytometry using specific phycoerythrin (PE)-conjugated antibodies against human intercellular cell adhesion molecule (ICAM)-1.
# The TNF-α, IL-8 and MCP-1 levels in supernatants collected from THP-1 and HUVEC cultures were measured using commercial ELISA kits (R&D Systems, Minneapolis, MN, USA), and NF-κB activity in HUVECs was measured using the Trans AM NF-κB p65 kit (Active Motif, Carlsbad, CA, USA). TNF-α, CCL-4/macrophage inflammatory protein (MIP)-1β, IL-6, and IL-1β levels in mouse plasma collected through cardiac puncture at the indicated time points after the high-grade CLP procedure were measured using the Mouse Magnetic Luminex eScreening Assay kit (R&D Systems). […]
# [1] = test system: experimental ischemic AKI model; settings: by lowering inflammatory cytokine expression and macrophages/monocyte accumulation; cited from earlier work
# lung IRI model = settings: decreases neutrophil infiltration and pulmonary edema; cited from earlier work
molecule,measurement,setting,value
Cc1ccc(NCCCc2ccccc2)c(N)c1 [JSH-23],inhibiting LPS-induced NF-κB activation and cytokine production: Exo-srIκB versus JSH-23,THP-1 cells,comparable effects
infliximab: anti-TNF-α agent,effect in the experimental ischemic AKI model,[1],protective effects
"srIκB: non-degradable IκBα protein with mutations at serine residues 32 and 36 (protein, listed as Homo sapiens) MFQAAERPQEWAMEGPRDGLKKERLLDDRHDAGLDAMKDEEYEQMVKELQEIRLEPQEVPRGSEPWKQQLTEDGDSFLHLAIIHEEKALTMEVIRQVKGDLAFLNFQNNLQQTPLHLAVITNQPEIAEALLGAGCDPELRDFRGNTPLHLACEQGCLASVGVLTQSCTTPHLHSILKATNYNGHTCLHLASIHGYLGIVELLVSLGADVNAQEPCNGRTALHLAVDLQNPDLVSLLLKCGADVNRVTYQGYSPYQLTWGRPSTRIQQQLGQLTLENLQMLPESEDEESYDTESEFTEFTEDELPYDDCVFGGQRLTL",effect in the lung IRI model,lung IRI model,proven protective effects
